Measurements from patent US20240299385A1 (ReWind Therapeutics NV, priority 2021, published 2024).

Molecular target: T1, human GPR17 receptor (Homo sapiens, UniProt Q13304)
T1 construct: host or cells: HEK-293
Assay: Calcium mobilization functional assay (Fluo-8, FLIPR TETRA) in HEK-293 hGPR17 (Gα-q assay)
Format: cell-based
Conditions: antagonism of MDL29,951 (~EC80) induced Ca2+ signal; cell line (HEK-293 hGPR17 or HEK-293 Suchi5 hGPR17) not given
Summary of the method: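 Fluo-8-loaded HEK-293 hGPR17 cells (60 min dye loading, room temperature) were preincubated with compound for twenty minutes, then challenged with agonist MDL29,951 at ~EC80, 500 nM. Intracellular calcium release via Gα-q was recorded as FLIPR fluorescence for a further 2 minutes; compounds tested in duplicate.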

T1 sequence (Q13304 whole entry): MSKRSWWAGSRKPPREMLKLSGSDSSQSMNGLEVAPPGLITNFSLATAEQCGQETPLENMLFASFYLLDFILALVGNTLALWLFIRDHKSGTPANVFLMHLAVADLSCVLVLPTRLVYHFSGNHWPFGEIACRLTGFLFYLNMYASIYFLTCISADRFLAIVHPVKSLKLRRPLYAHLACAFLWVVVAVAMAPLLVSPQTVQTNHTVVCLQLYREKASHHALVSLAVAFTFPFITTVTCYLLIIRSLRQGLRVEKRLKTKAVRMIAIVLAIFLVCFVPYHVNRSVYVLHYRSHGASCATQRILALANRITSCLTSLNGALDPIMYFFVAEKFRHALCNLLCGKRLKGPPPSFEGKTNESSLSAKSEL

SMILES	IC50 [nM]
O=S(=O)(Nc1cc(F)c(Br)cc1F)c1c[nH]c(-c2ccoc2)c1 [Cpd 477, N-(4-bromo-2,5-difluorophenyl)-5-(furan-3-yl)-1H-pyrrole-3-sulfonamide]	< 500
N#CCOc1cnc(NS(=O)(=O)c2c[nH]c(-c3ccccc3)c2)c(F)c1 [Cpd 472, N-[5-(cyanomethoxy)-3-fluoropyridin-2-yl]-5-phenyl-1H-pyrrole-3-sulfonamide]	500 to 5000
O=S(=O)(Nc1cc(F)c(C(F)(F)F)cc1F)c1c[nH]c(-c2ccoc2)c1 [Cpd 276, N-(2,5-difluoro-4-(trifluoromethyl)phenyl)-5-(furan-3-yl)-1H-pyrrole-3-sulfonamide]	< 500
N#Cc1ccc(NS(=O)(=O)c2c[nH]c(-c3cccc(F)c3Cl)c2)c(F)c1 [Cpd 267, 5-(2-chloro-3-fluoro-phenyl)-N-(4-cyano-2-fluoro-phenyl)-1H-pyrrole-3-sulfonamide]	< 500
Cc1c(Cl)cccc1-c1cc(S(=O)(=O)Nc2ccc(C#N)cc2F)c[nH]1 [Cpd 253, 5-(3-chloro-2-methyl-phenyl)-N-(4-cyano-2-fluoro-phenyl)-1H-pyrrole-3-sulfonamide]	500 to 5000
O=S(=O)(Nc1cc(F)c(C(F)(F)F)cc1F)c1c[nH]c(-c2ccc(F)cc2)c1 [Cpd 113, N-[2,5-difluoro-4-(trifluoromethyl)phenyl]-5-(4-fluorophenyl)-1H-pyrrole-3-sulfonamide]	500 to 5000
O=S(=O)(Nc1cc(F)c(C(F)(F)F)cc1F)c1c[nH]c(-c2cnccc2Cl)c1 [Cpd 556, 5-(4-chloropyridin-3-yl)-N-[2,5-difluoro-4-(trifluoromethyl)phenyl]-1H-pyrrole-3-sulfonamide]	< 500
N#Cc1cc(F)c(NS(=O)(=O)c2c[nH]c(-c3ccccc3)c2F)cc1F [Cpd 076, N-(4-cyano-2,5-difluoro-phenyl)-4-fluoro-5-phenyl-1H-pyrrole-3-sulfonamide]	< 500
O=S(=O)(Nc1cc(F)c(C(F)(F)F)cc1F)c1c[nH]c(-c2ncccc2C(F)(F)F)c1 [Cpd 282, N-[2,5-difluoro-4-(trifluoromethyl)phenyl]-5-[3-(trifluoromethyl)-2-pyridyl]-1H-pyrrole-3-sulfonamide]	5000 to 50000
N#Cc1ccc(NS(=O)(=O)c2c[nH]cc2Cc2ccccc2OC(F)(F)F)c(F)c1 [Cpd 388, N-(4-cyano-2-fluorophenyl)-4-[[2-(trifluoromethoxy)phenyl]methyl]-1H-pyrrole-3-sulfonamide]	500 to 5000
CN(C)c1ccccc1-c1cc(S(=O)(=O)Nc2ccc(C#N)cc2F)c[nH]1 [Cpd 506, N-(4-cyano-2-fluorophenyl)-5-[2-(dimethylamino)phenyl]-1H-pyrrole-3-sulfonamide]	500 to 5000
O=S(=O)(Nc1cc(F)c(OC(F)F)cc1F)c1c[nH]c(-c2cncs2)c1 [Cpd 628, N-[4-(difluoromethoxy)-2,5-difluorophenyl]-5-(1,3-thiazol-5-yl)-1H-pyrrole-3-sulfonamide]	< 500
N#Cc1ccc(NS(=O)(=O)c2c[nH]c(-c3ccsc3)c2)c(F)c1 [Cpd 103, N-(4-cyano-2-fluoro-phenyl)-5-(3-thienyl)-1H-pyrrole-3-sulfonamide]	< 500
COc1ccc(-c2cc(S(=O)(=O)Nc3cc(F)c(C(F)(F)F)cc3F)c[nH]2)cc1 [Cpd 294, N-[2,5-difluoro-4-(trifluoromethyl)phenyl]-5-(4-methoxyphenyl)-1H-pyrrole-3-sulfonamide]	5000 to 50000
N#Cc1ccc(NS(=O)(=O)c2c[nH]c(-c3ncccn3)c2)c(F)c1 [Cpd 094, N-(4-cyano-2-fluorophenyl)-5-(pyrimidin-2-yl)-1H-pyrrole-3-sulfonamide]	5000 to 50000
O=S(=O)(Nc1cc(F)c(C(F)(F)F)cc1F)c1c[nH]c(-c2cccs2)c1 [Cpd 272, N-[2,5-difluoro-4-(trifluoromethyl)phenyl]-5-(2-thienyl)-1H-pyrrole-3-sulfonamide]	< 500
N#Cc1ccc(NS(=O)(=O)c2c[nH]c(-c3ccccn3)c2)c(F)c1 [Cpd 026, N-(4-cyano-2-fluoro-phenyl)-5-(2-pyridyl)-1H-pyrrole-3-sulfonamide]	< 500
O=S(=O)(Nc1ccc(OC(F)F)nc1)c1c[nH]c(-c2ccccc2)c1 [Cpd 233, N-[6-(difluoromethoxy)-3-pyridyl]-5-phenyl-1H-pyrrole-3-sulfonamide]	500 to 5000
O=S(=O)(Nc1cc(F)c(OC(F)F)cc1F)c1c[nH]cc1Cc1cccc(F)c1 [Cpd 453, N-[4-(difluoromethoxy)-2,5-difluorophenyl]-4-[(3-fluorophenyl)methyl]-1H-pyrrole-3-sulfonamide]	< 500
O=S(=O)(Nc1cc(F)c(F)cc1F)c1c[nH]c(-c2ccccn2)c1 [Cpd 179, 5-(2-pyridyl)-N-(2,4,5-trifluorophenyl)-1H-pyrrole-3-sulfonamide]	500 to 5000
N#Cc1sc(NS(=O)(=O)c2c[nH]c(-c3ccccc3)c2)cc1F [Cpd 644, N-(5-cyano-4-fluorothiophen-2-yl)-5-phenyl-1H-pyrrole-3-sulfonamide]	5000 to 50000

SMILES	IC50 [nM]
O=S(=O)(Nc1cc(F)c(C(F)(F)F)cc1F)c1c[nH]c(-c2ccc(Cl)cc2F)c1 [Cpd 362, 5-(4-chloro-2-fluoro-phenyl)-N-[2,5-difluoro-4-(trifluoromethyl)phenyl]-1H-pyrrole-3-sulfonamide]	5000 to 50000
COc1ncccc1-c1cc(S(=O)(=O)Nc2cc(F)c(C(F)(F)F)cc2F)c[nH]1 [Cpd 191, N-[2,5-difluoro-4-(trifluoromethyl)phenyl]-5-(2-methoxy-3-pyridyl)-1H-pyrrole-3-sulfonamide]	< 500
COc1nc(OC(F)F)c(F)cc1NS(=O)(=O)c1c[nH]c(-c2ccccc2F)c1 [Cpd 116, N-[6-(difluoromethoxy)-5-fluoro-2-methoxy-3-pyridyl]-5-(2-fluorophenyl)-1H-pyrrole-3-sulfonamide]	< 500
N#Cc1ccc(NS(=O)(=O)c2c[nH]cc2-c2ccccc2F)c(F)c1 [Cpd 231, N-(4-cyano-2-fluoro-phenyl)-4-(2-fluorophenyl)-1H-pyrrole-3-sulfonamide]	500 to 5000
O=S(=O)(Nc1cc(F)c(OC(F)F)cc1F)c1c[nH]c(-c2ccccn2)c1 [Cpd 205, N-[4-(difluoromethoxy)-2,5-difluoro-phenyl]-5-(2-pyridyl)-1H-pyrrole-3-sulfonamide]	< 500
O=S(=O)(Nc1cc(F)c(OC(F)F)cc1F)c1c[nH]cc1Cc1cccc(OC(F)F)c1 [Cpd 483, N-[4-(difluoromethoxy)-2,5-difluorophenyl]-4-[[3-(difluoromethoxy)phenyl]methyl]-1H-pyrrole-3-sulfonamide]	500 to 5000
CCOC(=O)c1ccc(NS(=O)(=O)c2c[nH]c(-c3ccccn3)c2)c(F)c1 [Cpd 203]	500 to 5000
O=S(=O)(Nc1ccc(Cl)cc1F)c1c[nH]cc1Cc1ccccc1 [Cpd 153, 4-benzyl-N-(4-chloro-2-fluoro-phenyl)-1H-pyrrole-3-sulfonamide]	5000 to 50000
COc1cc(Br)cnc1NS(=O)(=O)c1c[nH]c(-c2ccccc2)c1 [Cpd 062, N-(5-bromo-3-methoxypyridin-2-yl)-5-phenyl-1H-pyrrole-3-sulfonamide]	500 to 5000
Cc1ccc(Cl)c(-c2cc(S(=O)(=O)Nc3ccc(C#N)cc3F)c[nH]2)c1 [Cpd 254, 5-(2-chloro-5-methyl-phenyl)-N-(4-cyano-2-fluoro-phenyl)-1H-pyrrole-3-sulfonamide]	500 to 5000
Cc1ccc(F)c(-c2cc(S(=O)(=O)Nc3ccc(C#N)cc3F)c[nH]2)c1 [Cpd 044, N-(4-cyano-2-fluoro-phenyl)-5-(2-fluoro-5-methyl-phenyl)-1H-pyrrole-3-sulfonamide]	< 500
N#Cc1ccc(NS(=O)(=O)c2c[nH]cc2Cc2cc(F)cc(F)c2)c(F)c1 [Cpd 546, N-(4-cyano-2-fluorophenyl)-4-[(3,5-difluorophenyl)methyl]-1H-pyrrole-3-sulfonamide]	< 500
O=S(=O)(Nc1cc(F)c(OC(F)F)cc1F)c1c[nH]c(-c2ccccc2)c1 [Cpd 232, N-[4-(difluoromethoxy)-2,5-difluoro-phenyl]-5-phenyl-1H-pyrrole-3-sulfonamide]	< 500
CC(C)n1cccc(-c2cc(S(=O)(=O)Nc3ccc(C#N)cc3F)c[nH]2)c1=O [Cpd 603, N-(4-cyano-2-fluorophenyl)-5-(2-oxo-1-propan-2-ylpyridin-3-yl)-1H-pyrrole-3-sulfonamide]	5000 to 50000
N#Cc1ccc(NS(=O)(=O)c2c[nH]cc2Cc2ccc(Cl)cc2)c(F)c1 [Cpd 208, 4-[(4-chlorophenyl)methyl]-N-(4-cyano-2-fluoro-phenyl)-1H-pyrrole-3-sulfonamide]	500 to 5000
O=S(=O)(Nc1cnc(Cl)cc1F)c1c[nH]c(-c2ccccc2F)c1 [Cpd 142, N-(6-chloro-4-fluoro-3-pyridyl)-5-(2-fluorophenyl)-1H-pyrrole-3-sulfonamide]	500 to 5000
O=S(=O)(Nc1ccc(C(F)(F)F)c(F)c1F)c1c[nH]c(-c2ccccc2)c1 [Cpd 334, N-[2,3-difluoro-4-(trifluoromethyl)phenyl]-5-phenyl-1H-pyrrole-3-sulfonamide]	500 to 5000
Cc1ccc(Cc2c[nH]cc2S(=O)(=O)Nc2ccc(C#N)cc2F)cc1 [Cpd 385, N-(4-cyano-2-fluorophenyl)-4-[(4-methylphenyl)methyl]-1H-pyrrole-3-sulfonamide]	5000 to 50000
O=S(=O)(Nc1cc(F)c(Br)cc1F)c1c[nH]cc1-c1cccc(F)c1 [Cpd 359, N-(4-bromo-2,5-difluoro-phenyl)-4-(3-fluorophenyl)-1H-pyrrole-3-sulfonamide]	500 to 5000
Cc1ccnc(-c2cc(S(=O)(=O)Nc3ccc(C#N)cc3F)c[nH]2)c1 [Cpd 503, N-(4-cyano-2-fluorophenyl)-5-(4-methylpyridin-2-yl)-1H-pyrrole-3-sulfonamide]	500 to 5000
N#Cc1ccc(NS(=O)(=O)c2c[nH]c(-c3ncccc3Cl)c2)c(F)c1 [Cpd 349, 5-(3-chloro-2-pyridyl)-N-(4-cyano-2-fluoro-phenyl)-1H-pyrrole-3-sulfonamide]	< 500
